Where two headings read alike, the source gives them in different places.
Legend:
Venturia inaegualis = assay: In vivo fungicidal activity on host plants, Apple Scab (AS); conditions: sprayed on host plants before inoculation
Pythium ultimum = assay: In vitro fungicidal activity, growth inhibition of ground fungal mycelia (PYTHUL); assay type: cell-based; conditions: Globisporangium ultimum, 3-4 days at 21° C., averaged when more than one test, read-out: Growth inhibition rating, PYTHUL (converted)
Protocol: (§1) Test compounds are dissolved or suspended in acetone and dispersed into cell well plates containing a suspension of ground fungal mycelia in a nutrient broth. Assay plates are incubated for 3-4 days at 21° C. Growth inhibition is measured visually and is rated using the following scale:
(§2) Assay fungi include the plant pathogens, Pythium ultimum (Pythul); Rhizoctonia solani (Rhizso); Fusarium oxysporum f. sp. cucumerinum (Fusoxc); and Pseudocercosporella herpotrichoides (Psdche).
(§3) When more than one test is run, the data are averaged.

Pyricularia oryzae = assay type: in vivo; conditions: sprayed on host plants before inoculation
Cercospora beticola = assay: In vivo fungicidal activity on host plants, Sugar Beet Cercospora (SBC); conditions: sprayed on host plants before inoculation; also: ranges in brackets are in %
[1] = tested on: Erysiphe graminis f. sp. tritici; assay: In vivo fungicidal activity on host plants, Wheat Powdery Mildew (WPM); conditions: sprayed on host plants before inoculation
Plasmopara viticola = assay: In vivo fungicidal activity on host plants, Grape Downy Mildew (GDM); conditions: sprayed on host plants before inoculation
[2] = tested on: Puccinia recondita f. sp. tritici; assay: In vivo fungicidal activity on host plants, Wheat Leaf Rust (WLR); conditions: 400 ppm; sprayed on host plants before inoculation
[3] = tested on: Pseudocercosporella herpotrichoides; assay: In vitro fungicidal activity, growth inhibition of ground fungal mycelia (PSDCHE); assay type: cell-based; conditions: Oculimacula yallundae, 3-4 days at 21° C., averaged when more than one test, read-out: Growth inhibition rating, PSDCHE (converted)
Protocol: as §1, §2, §3

[4] = tested on: Fusarium oxysporum f. sp. cucumerinum; assay: In vitro fungicidal activity, growth inhibition of ground fungal mycelia (FUSOXC); assay type: cell-based; conditions: read-out: Growth inhibition rating, FUSOXC
Protocol: as §1, §2, §3

Rhizoctonia solani = assay: In vitro fungicidal activity, growth inhibition of ground fungal mycelia (RHIZSO); assay type: cell-based; conditions: 3-4 days at 21° C., averaged when more than one test, read-out: Growth inhibition rating, RHIZSO
Protocol: as §1, §2, §3

Botrytis cinerea = assay: In vivo fungicidal activity on host plants, Pepper Botrytis (PB); conditions: sprayed on host plants before inoculation
[5] = 25 ppm, 3-4 days at 21° C., averaged when more than one test

| Compound | Disease control rating, AS (Venturia inaegualis; 400 ppm) | inhibition at 25 ppm (Pythium ultimum) [%] | Disease control rating, RB (Pyricularia oryzae; 400 ppm) | Disease control rating, SBC (Cercospora beticola; 400 ppm) | Disease control rating, WPM ([1]; 400 ppm) | Disease control rating, GDM (Plasmopara viticola; 400 ppm) | Disease control rating, WLR [2] | inhibition at 25 ppm [3] [%] | inhibition at 25 ppm [4] [%] | inhibition at 25 ppm (Rhizoctonia solani) [%] | Disease control rating, PB (Botrytis cinerea; 400 ppm) | inhibition at 25 ppm [4, 5] [%] | Disease control rating, AS (Venturia inaegualis; 200 ppm) | Disease control rating, RB (Pyricularia oryzae; 200 ppm) | Disease control rating, SBC (Cercospora beticola; 200 ppm) | Disease control rating, PB (Botrytis cinerea; 200 ppm) | Disease control rating, GDM (Plasmopara viticola; 200 ppm) | Disease control rating, WPM ([1]; 200 ppm) |
| --- | --- | --- | --- | --- | --- | --- | --- | --- | --- | --- | --- | --- | --- | --- | --- | --- | --- | --- |
| N#Cc1cc(C(F)(F)F)[nH]c1-c1cccs1 [Compound 2, 2-(2-Thienyl)-5-(trifluoromethyl)pyrrole-3-carbonitrile] | 9 (100) | 100 | 5 (60-74) | 0 (0) | 9 (100) | 9 (100) | 9 (100) | – | – | – | – | – | – | – | – | – | – | – |
| N#Cc1c(-c2ccc(Br)s2)[nH]c(C(F)(F)F)c1Br [Compound 3, 4-Bromo-2-(5-bromo-2-thienyl)-5-(trifluoromethyl)pyrrole-3-carbonitrile] | 9 (100) | – | 0 (0) | – | 7 (90-95) | 9 (100) | 9 (100) | 30 to 59 | – | – | – | – | – | – | – | – | – | – |
| O=[N+]([O-])c1ccc(-c2c(C(F)(F)F)[nH]c(-c3ccc(Cl)cc3)c2[N+](=O)[O-])s1 [Compound 5, 2-(p-Chlorophenyl)-3-nitro-4-(5-nitro-2-thienyl)-5-(trifluoromethyl)pyrrole] | 4 (45-59) | – | 0 (0) | – | 0 (0) | 9 (100) | 6 (75-89) | 60 to 89 | 30 to 59 | 90 to 99 | 0 (0) | – | – | – | – | – | – | – |
| O=[N+]([O-])c1c(-c2ccc(Cl)cc2)[nH]c(C(F)(F)F)c1-c1csc(Br)c1 [Compound 8, 3-(5-Bromo-3-thienyl)-5-(p-chlorophenyl)-4-nitro-2-(trifluoromethyl)pyrrole] | 8 (96-99) | 0 | 4 (45-59) | – | 0 (0) | 9 (100) | 7 (90-95) | 0 | – | 30 to 59 | 0 (0) | 0 | – | – | – | – | – | – |
| O=[N+]([O-])c1c(-c2ccc(Cl)cc2)[nH]c(C(F)(F)F)c1-c1csc(Br)c1Br [Compound 10, 2-(p-Chlorophenyl)-4-(4,5-dibromo-3-thienyl)-3-nitro-5-(trifluoromethyl)pyrrole] | 0 (0) | 0 | 7 (90-95) | 0 (0) | 4 (45-59) | 7 (90-95) | – | 0 | – | – | 0 (0) | – | – | – | – | – | – | – |
| N#Cc1cc(C(F)(F)F)[nH]c1-c1ccco1 [Compound 11, 2-(2-Furyl)-5-(trifluoromethyl)pyrrole-3-carbonitrile] | – | 90 to 99 | – | – | – | – | – | 0 | – | – | – | 0 | 0 (0) | 0 (0) | 0 (0) | 0 (0) | 0 (0) | – |
| N#Cc1c(-c2cccs2)[nH]c(C(F)(F)F)c1Cl [Compound 12, 4-Chloro-2-(2-thienyl)-5-(trifluoromethyl)pyrrole-3-carbonitrile] | – | 90 to 99 | – | – | – | – | – | 0 | – | 90 to 99 | – | 0 | 4 (45-59) | 0 (0) | 0 (0) | 0 (0) | 8 (96-99) | 8 (96-99) |
| CCOCn1c(-c2ccc(Br)s2)c(C#N)c(Br)c1C(F)(F)F [Compound 13, 4-Bromo-2-(5-bromo-2-thienyl)-1-(ethoxymethyl)-5-(trifluoromethyl)pyrrole-3-carbonitrile] | – | 0 | – | – | – | – | – | 0 | – | 30 to 59 | – | 0 | 0 (0) | 0 (0) | 0 (0) | 0 (0) | 0 (0) | 9 (100) |
| N#Cc1cc(C(F)(F)F)[nH]c1-c1ccc(Br)o1 [Compound 14, 2-(5-Bromo-2-furyl)-5-(trifluoromethyl)pyrrole-3-carbonitrile] | – | – | – | – | – | – | – | 0 | – | 30 to 59 | – | 0 | 0 (0) | 0 (0) | 0 (0) | 0 (0) | 6 (75-89) | 6 (75-89) |
| N#Cc1cc(C(F)(F)F)[nH]c1-c1ccc(Br)s1 [Compound 15, 2-(5-Bromo-2-thienyl)-5-(trifluoromethyl)pyrrole-3-carbonitrile] | – | 0 | – | – | – | – | – | 0 | – | 60 to 89 | – | 0 | – | – | – | – | – | – |
| N#Cc1cc(C(F)(F)F)[nH]c1-c1ccc(Cl)s1 [Compound 16, 2-(5-Chloro-2-thienyl)-5-(trifluoromethyl)pyrrole-3-carbonitrile] | – | 0 | – | – | – | – | – | 0 | – | 60 to 89 | – | 0 | – | – | – | – | – | – |
| N#Cc1c(-c2ccc(Cl)s2)[nH]c(C(F)(F)F)c1Br [Compound 17, 4-Bromo-2-(5-chloro-2-thienyl)-5-(trifluoromethyl)pyrrole-3-carbonitrile] | – | 30 to 59 | – | – | – | – | – | 0 | – | 60 to 89 | – | 0 | – | – | – | – | – | – |
| CCOCn1c(-c2ccc(Cl)s2)c(C#N)c(Br)c1C(F)(F)F [Compound 18, 4-Bromo-2-(5-chloro-2-thienyl)-1-(ethoxymethyl)-5-(trifluoromethyl)pyrrole-3-carbonitrile] | – | 0 | – | – | – | – | – | 0 | – | 30 to 59 | – | 0 | – | – | – | – | – | – |
| N#Cc1c(-c2ccc(Br)o2)[nH]c(C(F)(F)F)c1Br [Compound 19, 4-Bromo-2-(5-bromo-2-furyl)-5-(trifluoromethyl)pyrrole-3-carbonitrile] | – | 0 | – | – | – | – | – | 0 | – | 0 | – | 0 | – | – | – | – | – | – |
| N#Cc1cc(C(F)(F)F)[nH]c1-c1cc(Br)cs1 [Compound 20, 2-(4-Bromo-2-thienyl)-5-(trifluoromethyl)pyrrole-3-carbonitrile] | – | 0 | – | – | – | – | – | 0 | – | 0 | – | 0 | – | – | – | – | – | – |
| N#Cc1c(-c2cc(Br)c(Br)s2)[nH]c(C(F)(F)F)c1Br [Compound 21, 4-Bromo-2-(4,5-dibromo-2-thienyl)-5-(trifluoromethyl)pyrrole-3-carbonitrile] | – | 0 | – | – | – | – | – | 0 | – | 0 | – | 0 | – | – | – | – | – | – |
| CCOCn1c(-c2ccc(Br)o2)c(C#N)c(Br)c1C(F)(F)F [Compound 22, 4-Bromo-2-(5-bromo-2-furyl)-1-(ethoxymethyl)-5-(trifluoromethyl)pyrrole-3-carbonitrile] | – | 0 | – | – | – | – | – | 0 | – | 0 | – | 0 | – | – | – | – | – | – |

Source: US5480902A, “Thienylpyrrole fungicidal agents” (American Cyanamid Company, priority 1993, dated 1996)
